Test results from ChEMBL document CHEMBL5724914, “Linking interpersonal differences in gut microbiota composition and drug biotransformation activity” (2024).

Experiments:
[1] = human gut metagenome, 24 h, 2 µM
[2] = human gut metagenome, 24 h, 2 µM; remark: listed apart in the source
[3] = human gut metagenome, 24 h, 2 µM; remark: listed apart in the source
[4] = (§1) The drug is tested on Z-026 corresponding to metagenome with ENA study accession number: PRJEB37062 and ENA sample accession number: ERS12561825 for biotransformation under anaerobic condition. The drug concentrations were measured over 9 timepoints collected between 0 and 24 hours of incubation by liquid-chromatography-coupled mass spectrometry (LC–MS); conditions: 2 µM
[5] = (§2) The drug is tested on Z-001 corresponding to mouse gut metagenome with ENA study accession number: PRJEB37062 and ENA sample accession number: ERS12561801 for biotransformation under anaerobic condition. The drug concentrations were measured over 9 timepoints collected between 0 and 24 hours of incubation by liquid-chromatography-coupled mass spectrometry (LC–MS); conditions: 2 µM
[6] = as §2, with “WLS-038” for “Z-001”, “human” for “mouse”, “ERS12561745” for “ERS12561801”; conditions: 2 µM
[7] = as §2, with “WLS-006” for “Z-001”, “human” for “mouse”, “ERS12561741” for “ERS12561801”; conditions: 2 µM
[8] = human gut metagenome, 24 h, 2 µM; remark: listed apart in the source
[9] = human gut metagenome, 24 h, 2 µM; remark: listed apart in the source
[10] = as §2, with “WLS-370” for “Z-001”, “human” for “mouse”, “ERS12561793” for “ERS12561801”; conditions: 2 µM
[11] = human gut metagenome, 24 h, 2 µM; remark: listed apart in the source
[12] = human gut metagenome, 24 h, 2 µM; remark: listed apart in the source
[13] = as §2, with “Z-025” for “Z-001”, “rabbit” for “mouse”, “ERS12561824” for “ERS12561801”; conditions: 2 µM
[14] = human gut metagenome, 24 h, 2 µM; remark: listed apart in the source
[15] = human gut metagenome, 24 h, 2 µM; remark: listed apart in the source
[16] = as §2, with “WLS-010” for “Z-001”, “human” for “mouse”, “ERS12561743” for “ERS12561801”; conditions: 2 µM
[17] = human gut metagenome, 24 h, 2 µM; remark: listed apart in the source
[18] = as §1, with “Z-021” for “Z-026”, “ERS12561820” for “ERS12561825”; conditions: 2 µM
[19] = as §2, with “Z-006” for “Z-001”, “ERS12561806” for “ERS12561801”; conditions: 2 µM
[20] = as §2, with “WLS-027” for “Z-001”, “human” for “mouse”, “ERS12561744” for “ERS12561801”; conditions: 2 µM
Also: call rule not given here.

Row | Bacterial Biotransformation [1] | Bacterial Biotransformation [2] | Bacterial Biotransformation [3] | Bacterial Biotransformation [4] | Bacterial Biotransformation [5] | Bacterial Biotransformation [6] | Bacterial Biotransformation [7] | Bacterial Biotransformation [8] | Bacterial Biotransformation [9] | Bacterial Biotransformation [10] | Bacterial Biotransformation [11] | Bacterial Biotransformation [12] | Bacterial Biotransformation [13] | Bacterial Biotransformation [14] | Bacterial Biotransformation [15] | Bacterial Biotransformation [17] | Bacterial Biotransformation [18] | Bacterial Biotransformation [19] | Bacterial Biotransformation [20] | Structure (SMILES) | Bacterial Biotransformation [16]
1 | Compound NOT metabolized | Compound NOT metabolized | Compound NOT metabolized | Compound NOT metabolized | Compound NOT metabolized | Compound NOT metabolized | Compound NOT metabolized | Compound NOT metabolized | Compound NOT metabolized | Compound NOT metabolized | Compound NOT metabolized | Compound NOT metabolized | Compound metabolized | Compound NOT metabolized | Compound NOT metabolized | Compound NOT metabolized | Compound NOT metabolized | – | – | CN1CCc2cccc3c2[C@H]1Cc1ccc(O)c(O)c1-3 [APOMORPHINE] | Compound NOT metabolized
2 | Compound metabolized | Compound NOT metabolized | Compound NOT metabolized | Compound NOT metabolized | Compound NOT metabolized | Compound metabolized | Compound metabolized | Compound NOT metabolized | Compound metabolized | Compound metabolized | Compound NOT metabolized | Compound NOT metabolized | Compound NOT metabolized | Compound NOT metabolized | Compound metabolized | Compound NOT metabolized | Compound NOT metabolized | Compound NOT metabolized | Compound metabolized | CC(C)c1c(C(=O)Nc2ccccc2)c(-c2ccccc2)c(-c2ccc(F)cc2)n1CC[C@@H](O)C[C@@H](O)CC(=O)O [ATORVASTATIN] | –
3 | Compound metabolized | Compound metabolized | Compound metabolized | Compound metabolized | Compound NOT metabolized | Compound metabolized | Compound metabolized | Compound metabolized | Compound metabolized | Compound metabolized | Compound metabolized | Compound metabolized | Compound metabolized | Compound metabolized | Compound metabolized | Compound metabolized | Compound NOT metabolized | Compound NOT metabolized | Compound metabolized | COc1ccc2[nH]c([S+]([O-])Cc3ncc(C)c(OC)c3C)nc2c1 (stereo not drawn) [OMEPRAZOLE] | –

Row | Structure (SMILES) | Bacterial Biotransformation [1] | Bacterial Biotransformation [2] | Bacterial Biotransformation [3] | Bacterial Biotransformation [4] | Bacterial Biotransformation [5] | Bacterial Biotransformation [6] | Bacterial Biotransformation [7] | Bacterial Biotransformation [8] | Bacterial Biotransformation [9] | Bacterial Biotransformation [10] | Bacterial Biotransformation [11] | Bacterial Biotransformation [12] | Bacterial Biotransformation [13] | Bacterial Biotransformation [14] | Bacterial Biotransformation [15] | Bacterial Biotransformation [17] | Bacterial Biotransformation [18] | Bacterial Biotransformation [19] | Bacterial Biotransformation [20] | Bacterial Biotransformation [16]
4 | C[C@@H]1CC[C@H]2[C@@H](C)C(=O)O[C@@H]3O[C@@]4(C)CC[C@@H]1[C@]32OO4 [ARTEMISININ] | Compound metabolized | Compound NOT metabolized | Compound metabolized | Compound metabolized | – | Compound metabolized | Compound metabolized | Compound metabolized | Compound metabolized | Compound metabolized | Compound metabolized | Compound NOT metabolized | – | – | Compound metabolized | Compound metabolized | Compound metabolized | Compound NOT metabolized | Compound metabolized | Compound metabolized
